# Data taken from PMC13626384 (Journal of medicinal chemistry, 2025).
# Where two headings read alike, the source gives them in different places.
# Legend:
# D283-med cell line = experiment: Cytotoxicity against D283-med cells; type: cell-based, human
# SF188 cell line = experiment: Cytotoxicity against SF188 cells; type: cell-based, human
# H460 cell line = experiment: Cytotoxicity against H460 cells; type: cell-based; settings: read-out: H460 IC50; non-small cell lung cancer cell line
# Plasma stability = type: in vitro ADME; settings: mouse plasma, after 5 hr
# [1] = biological target: human immunoproteasome (i20S) β5 (Homo sapiens, UniProt P20618+P28062); experiment: Proteasome subunit inhibition, i20S β5; type: biochemical; settings: read-out: i20S β5 IC50 ± SD; read 60 to 90 minutes after start
# [2] = biological target: human immunoproteasome (i20S) β2 (Homo sapiens, UniProt P40306+P49720); experiment: Proteasome subunit inhibition, i20S β2; type: biochemical; settings: read-out: i20S β2 IC50 ± SD; read 60 to 90 minutes after start
# [3] = biological target: human immunoproteasome (i20S) β1 (Homo sapiens, UniProt P28065+P40306); experiment: Proteasome subunit inhibition, i20S β1; type: biochemical; settings: read-out: i20S β1 IC50 ± SD; read 60 to 90 minutes after start
# [4] = PAMPA-BBB permeability assay; settings: PAMPA-BBB
# [5] = Caco-2 cell permeability and efflux; type: in vitro ADME, human; settings: human, Caco-2
# [6] = read-out: D283-med IC50, medulloblastoma cell line
# [7] = read-out: SF188 IC50, glioblastoma cell line
% Recovery [4],Mean Permeability [4],Compound,IC50 (D283-med cell line; [6]),IC50 (SF188 cell line; [7]),IC50 (H460 cell line),also measured
53%,3.75 10^−6 cm/sec,"CC(C)C[C@H](NC(=O)[C@@H]1Cc2c(F)c(F)c(c(F)c2F)Sc2cccc(c2)CC(=O)N[C@@H]([C@@H](C)O)C(=O)N1)C(=O)[C@@]1(C)CO1 [Compound 14, (5S,8S)-3^2,3^3,3^5,3^6-Tetrafluoro-8-((R)-1-hydroxyethyl)-N-((S)-4-methyl-1-((R)-2-methyloxiran-2-yl)-1-oxopentan-2-yl)-7,10-dioxo-2-thia-6,9-diaza-1(1,3),3(1,4)-dibenzenacycloundecaphane-5-carboxamide]",20 ± 1 nM,40 ± 9 nM,186 ± 52 nM,Plasma Stability % remaining (Plasma stability): more than 75%; IC50 [1]: 858 ± 342 nM; IC50 [2]: 1060 ± 171 nM; IC50 [3]: 310 ± 39.5 nM; Pe (effective permeability) [4]: around 4 10^−6 cm s^−1
79%,2.06 10^−6 cm/sec,"CC(C)C[C@H](NC(=O)[C@@H]1Cc2c(F)c(F)c(c(F)c2F)S(=O)(=O)c2cccc(c2)CC(=O)N[C@@H](C(C)(C)O)C(=O)N1)C(=O)[C@@]1(C)CO1 [Compound 24, (5S,8S)-3^2,3^3,3^5,3^6-Tetrafluoro-8-(2-hydroxypropan-2-yl)-N-((S)-4-methyl-1-((R)-2-methyloxiran-2-yl)-1-oxopentan-2-yl)-7,10-dioxo-2-thia-6,9-diaza-1(1,3),3(1,4)-dibenzenacycloundecaphane-5-carboxamide 2,2-dioxide]",54 ± 2 nM,100 ± 7 nM,410 ± 59 nM,
88%,1.40 10^−6 cm/sec,"CC(C)C[C@H](NC(=O)[C@@H]1Cc2c(F)c(F)c(c(F)c2F)S(=O)(=O)c2cccc(c2)CC(=O)N[C@@H]([C@H](C)O)C(=O)N1)C(=O)[C@@]1(C)CO1 [Compound 27, (5S,8S)-3^2,3^3,3^5,3^6-Tetrafluoro-8-((S)-1-hydroxyethyl)-N-((S)-4-methyl-1-((R)-2-methyloxiran-2-yl)-1-oxopentan-2-yl)-7,10-dioxo-2-thia-6,9-diaza-1(1,3),3(1,4)-dibenzenacycloundecaphane-5-carboxamide 2,2-dioxide]",28 ± 10 nM,72 ± 10 nM,360 ± 56 nM,
,,"CC(C)C[C@H](NC(=O)[C@@H]1Cc2c(F)c(F)c(c(F)c2F)S(=O)(=O)c2ccc(cc2)CCC(=O)N[C@@H](C(C)C)C(=O)N1)C(=O)[C@@]1(C)CO1 [Compound 29, (5S,8S)-3^2,3^3,3^5,3^6-Tetrafluoro-8-isopropyl-N-((S)-4-methyl-1-((R)-2-methyloxiran-2-yl)-1-oxopentan-2-yl)-7,10-dioxo-2-thia-6,9-diaza-1,3(1,4)-dibenzenacyclododecaphane-5-carboxamide 2,2-dioxide]",146 ± 29 nM,150 ± 12 nM,470 ± 154 nM,
,,"CC(C)C[C@H](NC(=O)[C@@H]1Cc2c(F)c(F)c(c(F)c2F)S(=O)(=O)c2cccc(c2)CC(=O)NCC(=O)N1)C(=O)[C@@]1(C)CO1 [Compound 32, (S)-32,33,35,36-Tetrafluoro-N-((S)-4-methyl-1-((R)-2-methyloxiran-2-yl)-1-oxopentan-2-yl)-7,10-dioxo-2-thia-6,9-diaza-1(1,3),3(1,4)-dibenzenacycloundecaphane-5-carboxamide 2,2-dioxide]",563 ± 46 nM,7230 nM,4540 nM,
87%,1.49 10^−6 cm/sec,"CC(C)C[C@H](NC(=O)[C@@H]1Cc2ccc(cc2)OCCCCCC(=O)N[C@@H](C(C)C)C(=O)N1)C(=O)[C@@]1(C)CO1 [Compound 33, (10S,13S)-10-Isopropyl-N-((S)-4-methyl-1-((R)-2-methyloxiran-2-yl)-1-oxopentan-2-yl)-8,11-dioxo-2-oxa-9,12-diaza-1(1,4)-benzenacyclotetradecaphane-13-carboxamide]",10.1 ± 2.1 nM,12.2 ± 0.4 nM,53 ± 15 nM,IC50 [1]: 32.9 ± 5.9 nM; IC50 [2]: 67.4 ± 8.4 nM; IC50 [3]: 81.7 ± 8.6 nM
,,"CC(C)C[C@H](NC(=O)[C@@H]1Cc2ccc(cc2)SCCCCCC(=O)NC(C)(C)C(=O)N1)C(=O)[C@@]1(C)CO1 [Compound 36, (S)-10,10-Dimethyl-N-((S)-4-methyl-1-((R)-2-methyloxiran-2-yl)-1-oxopentan-2-yl)-8,11-dioxo-2-thia-9,12-diaza-1(1,4)-benzenacyclotetradecaphane-13-carboxamide]",1440 nM,2260 nM,2330 nM,
,,"CC(C)C[C@@H](NC(=O)[C@@H]1Cc2ccc(cc2)S(=O)(=O)CCCCCC(=O)NC(C)(C)C(=O)N1)C(=O)[C@@]1(C)CO1 [Compound 37, (S)-10,10-Dimethyl-N-((R)-4-methyl-1-((R)-2-methyloxiran-2-yl)-1-oxopentan-2-yl)-8,11-dioxo-2-thia-9,12-diaza-1(1,4)-benzenacyclotetradecaphane-13-carboxamide 2,2-dioxide]",590 ± 20 nM,4420 nM,1720 nM,
99%,0.27 10^−6 cm/sec,"CC(C)C[C@H](NC(=O)[C@@H]1Cc2ccc(cc2)S(=O)(=O)CCCCCC(=O)NC(C(C)C)C(=O)N1)C(=O)[C@@]1(C)CO1 (stereo partly drawn) [Compound 38, (13S)-10-Isopropyl-N-((S)-4-methyl-1-((R)-2-methyloxiran-2-yl)-1-oxopentan-2-yl)-8,11-dioxo-2-thia-9,12-diaza-1(1,4)-benzenacyclotetradecaphane-13-carboxamide 2,2-dioxide]",16 ± 2 nM,157 ± 45 nM,287 ± 42 nM,
,,"C[C@H]1O[C@@H](O[C@H]2[C@@H](O)C[C@H](O[C@H]3[C@@H](O)C[C@H](O[C@H]4CC[C@@]5(C)[C@H](CC[C@@H]6[C@@H]5C[C@@H](O)[C@]5(C)[C@@H](C7=CC(=O)OC7)CC[C@]65O)C4)O[C@@H]3C)O[C@@H]2C)C[C@H](O)[C@@H]1O [Digoxin, reference compound]",,,,Papp A→B [5]: 1.3 ×10⁻⁶ cm/s; Papp B→A [5]: 13 ×10⁻⁶ cm/s
,,"Cn1cc(CNCC2CCN(c3ncc(C(=O)NO)cn3)CC2)c2ccccc21 [Quisinostat, reference compound]",37 ± 2 nM,43 ± 2 nM,30 ± 3 nM,"IC50 (D283-med cell line; Homo sapiens, D283 Med, read-out: D283-med IC50, medulloblastoma cell line): 30 to 43 nM; IC50 (SF188 cell line; Homo sapiens, SF-188, read-out: SF188 IC50, glioblastoma cell line): 30 to 43 nM"
,,"(5S,8S)-3^2,3^3,3^5,3^6-Tetrafluoro-8-isopropyl-9-methyl-N-((S)-4-methyl-1-((R)-2-methyloxiran-2-yl)-1-oxopentan-2-yl)-7,10-dioxo-2-thia-6,9-diaza-1(1,3),3(1,4)-dibenzenacycloundecaphane-5-carboxamide 2,2-dioxide [Compound 30]",1470 nM,1680 nM,3200 nM,
,,"(5S,8S)-32,33,35,36-Tetrafluoro-8-isopropyl-N-((S)-4-methyl-1-((R)-2-methyloxiran-2-yl)-1-oxopentan-2-yl)-7,10-dioxo-2-thia-6,9-diaza-1,3(1,4)-dibenzenacyclododecaphane-5-carboxamide [Compound 18]",232 ± 12 nM,239 ± 10 nM,1080 nM,
,,"(S)-10,10-Dimethyl-N-((S)-4-methyl-1-((R)-2-methyloxiran-2-yl)-1-oxopentan-2-yl)-8,11-dioxo-2-oxa-9,12-diaza-1(1,4)-benzenacyclotetradecaphane-13-carboxamide [Compound 34]",2080 nM,2910 nM,4520 nM,
